Data published in PubChem BioAssay AID599 (The Scripps Research Institute Molecular Screening Center, 2007).
Activity calls are given as the source filed them. No rule for the calls is given here.

Target: Nuclear receptor ROR-alpha (Homo sapiens) (UniProt P35398)
Assay: RORA reporter inhibition, dose response, counter-screen for SF-1 inhibitor project, cell-based (AID 599)

Nuclear receptor ROR-alpha (Homo sapiens), sequence (P35398 whole entry, looked up): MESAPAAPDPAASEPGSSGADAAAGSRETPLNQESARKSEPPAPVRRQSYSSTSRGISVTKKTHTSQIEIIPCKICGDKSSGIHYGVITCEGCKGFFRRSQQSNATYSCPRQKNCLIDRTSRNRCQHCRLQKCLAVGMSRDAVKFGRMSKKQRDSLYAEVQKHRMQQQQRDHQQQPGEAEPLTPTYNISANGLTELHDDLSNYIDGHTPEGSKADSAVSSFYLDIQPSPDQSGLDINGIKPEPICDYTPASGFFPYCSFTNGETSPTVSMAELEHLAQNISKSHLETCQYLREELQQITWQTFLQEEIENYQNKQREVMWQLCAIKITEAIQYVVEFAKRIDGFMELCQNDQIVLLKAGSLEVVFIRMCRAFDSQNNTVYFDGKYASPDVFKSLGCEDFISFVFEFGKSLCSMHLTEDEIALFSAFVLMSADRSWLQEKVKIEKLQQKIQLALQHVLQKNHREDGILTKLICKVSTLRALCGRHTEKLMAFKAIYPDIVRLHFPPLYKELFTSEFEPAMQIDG

Compound | IC50
COc1cc(C2C(C#N)=C(N)Oc3cc(N(C)C)ccc32)cc2c1OCO2 (centres undefined) | > 3.67 µM (inactive)
COC(=O)c1ccc(N2C(=O)CC(N3CCC(n4c(=O)[nH]c5ccccc54)CC3)C2=O)cc1 (centres undefined) | > 99 µM (inactive)
COC(=O)C1=C(CN2CCCc3ccccc32)NC(=O)NC1c1ccc(F)cc1 (centres undefined) | 3.59 µM
CCOc1ccccc1-n1c(SCC(=O)Nc2ccc(CC)cc2)nc2n[nH]c(C)c2c1=N | 6.54 µM
N#CC1=C(N)C(C#N)(C#N)[C@H](c2ccncc2)[C@H]2CN(C(=O)OCc3ccccc3)CC=C12 | inactive
Cc1ccc(C(=O)/C=C/Nc2ccccn2)cc1 | inactive
CSC1=C(C#N)C(c2ccc(Cl)cc2)C2=C(CC(C)(C)CC2=O)N1 (centres undefined) | inactive
CN(C)c1ccc(N/C=C/C(=O)c2ccccc2)cc1 | inactive
COc1cc(C2C(C#N)=C(N)Oc3cc(N)ccc32)cc(OC)c1OC (centres undefined) | inactive
COc1cc(/C=N/O)ccc1OCc1ccc(C(=O)O)cc1 | 0.967 µM
CN(C)c1ccc2c(c1)OC(N)=C(C#N)C2c1cccc(F)c1 (centres undefined) | inactive
CCN(CC)c1ccc2c(c1)OC(N)=C(C#N)C2c1cccnc1 (centres undefined) | inactive
CCOC(=O)C1=C(Cn2cnc3ccccc32)NC(=O)NC1c1cc(C)ccc1C (centres undefined) | > 11 µM (inactive)
O=C(/C=C\Nc1ccccn1)c1ccc(Cl)cc1 | 7.08 µM
O=C(/C=C\Nc1cccc(F)c1)c1ccc2c(c1)OCO2 | 5.54 µM
O=S(=O)(c1ccc2c(c1)C(=NO)c1cc(S(=O)(=O)N3CCCCC3)ccc1-2)N1CCCCC1 | 1.93 µM
CC(=O)CC1OC(=O)C(Br)=C1NCc1ccccc1 (centres undefined) | 9.45 µM
COc1cc(C2C(C#N)=C(C)NC3=C2C(=O)c2ccccc23)cc(OC)c1OC (centres undefined) | 4.75 µM
O=C(/C=C\Nc1ccc2c(c1)OCO2)c1ccccn1 | > 11 µM (inactive)
